# Where two headings read alike, the source gives them in different places.
# Legend:
# [1] = tested on: S. cerevisiae RJY1942 (palmitoylation sensitive); experiment: Growth inhibition assay, palmitoylation-sensitive strain; format: cell-based; conditions: for selectivity: EC50 in the control strain RJY1941 as compared to the sensitive strain RJY1942: growth curves, 24 hrs
# Protocol: The in vivo effect of the inhibitors on Ras2 palmitoylation was investigated by comparing the growth of S. cerevisiae strains previously described for our complementation assay. Briefly, the cells contain a defective allele of RAS2 that is balanced by an episomal copy of RAS2 linked to URA3. Under these conditions, the yeast strain cannot grow unless the episomal copy of RAS2 is palmitoylated. Varying concentrations of the inhibitors were added to 200 μl volumes of the yeast cells at an OD600 between 0.8 and 1.2 in a 96-well plate format. The OD600 was observed every 30 mins for 24 hrs and EC50 values were determined by graphing rate of growth against concentration of inhibitor for each inhibitor.
# To examine the inhibition of Ras palmitoylation in vivo, we utilized two strains of S. cerevisiae. The yeast strain RJY1942 (palmitoylation sensitive) requires Ras2 palmitoylation for viability. The isogenic wild type control yeast strain (RJY1941) is not dependent on Ras2 palmitoylation for viability. The growth of both strains was monitored in the presence (or absence) of our inhibitors every 30 mins for 24 hrs. EC50 values were calculated using GraphPad Prism® (La Jolla, Calif.) to extrapolate the effective concentration of each inhibitor that caused a 50% reduction in growth (FIG. 9). […] Compounds 13, 25, and 2-BP show a modest selectivity for the sensitive strain, RJY1942, over the control strain, RJY1941, resulting in a 2-fold greater EC50 value in the control strain as compared to the sensitive strain (values listed in FIG. 5, right panel). […] Additional work is needed to determine the mechanism of growth inhibition and selectivity of these compounds.
# Erf2 [2] = biological target: T1, Erf2 (Saccharomyces cerevisiae, UniProt Q06551); experiment: BODIPY-C12:0 gel-based assay of steady-state Erf2 autopalmitoylation; format: biochemical, S. cerevisiae
# T1 construct: made in house; host or cells: Saccharomyces cerevisiae strain RJY1842 (erf4Δ/erf4Δ), galactose-induced pESC(-Leu) vector, Ni-NTA purified
# Protocol: BODIPY®-C12:0-CoA (40 μM final, unless specified otherwise) was added to a 50 μl reaction containing approximately 0.5 μg enzyme (6×HIS-Erf2-(FLAG)-Erf4) and 100 μM inhibitors in 5% DMF in 50 mM sodium phosphate buffer, pH 6.8. The reactions were incubated 10 mins with inhibitor, and then the reaction was initiated with the addition of BODIPY®-C12:0-CoA, and incubated 15 mins at 30° C. The reaction was terminated by the addition of 5× non-reducing protein loading buffer. Each reaction was heated at 65° C. for 3 mins and then subjected to SDS-PAGE (12%). The gel was rinsed three times in ddH2O and visualized on the Typhoon 9410 Variable Mode Imager (GE Healthcare, Piscataway, N.J.) for BODIPY® fluorescence (ex. 488 nm/em. 532 nm) to visualize co-migration of the BODIPY® signal with 6×HIS-Erf2-(FLAG)-Erf4. The amount of 6×HIS-Erf2-(FLAG)-Erf4 was determined empirically using SDS-PAGE analysis under reducing conditions against a standard curve of bovine serum albumin.
# To determine if the ten compounds identified in this study were inhibiting autopalmitoylation, and not targeting hydrolysis of the enzyme, steady-state autopalmitoylation was evaluated at 100 μM of each compound compared to 100 μM 2-BP and DMF (vehicle) alone. […] From these screens we observed a decrease in BODIPY® fluorescence at the apparent molecular weight of Erf2. […]
# Erf2 [3] = biological target: T1, Erf2; conditions: previously demonstrated [13]; cited from earlier work
# Erf2 [4] = biological target: T1, Erf2; experiment: Fluorescence-based coupled PAT assay of the rate of Erf2 autopalmitoylation; format: biochemical, S. cerevisiae; conditions: for mode of inhibition of Erf2 autopalmitoylation: inhibitor titrations varying inhibitor and palmitoyl-CoA
# Protocol: The HTS application of protein palmitoylation was recently described, but was adjusted for this study. The production of NADH was monitored with a Biotek Mx fluorimeter (Biotek, Winooski, Vt.) using 340 nm excitation/465 nm emission. The 50 μl reaction contained 2 mM 2-Oxoglutarate (α-ketoglutamic acid), 0.25 mM NAD+, 0.2 mM Thiamine Pyrophosphate, 0.5 μg of purified 6×HIS-Erf2-(FLAG)-Erf4, 1 mM EDTA, 1 mM dithiothreitol, 8 mU 2-oxogluarate dehydrogenase (α-ketoglutarate dehydrogenase), 50 mM sodium phosphate, pH 6.8, and 0 100 μM inhibitor in 5% DMF. The reaction was initiated by the addition of 40 μM palmitoyl-CoA and monitored for 30 mins at 30° C. The first 10 mins of the reaction was analyzed to determine the initial rates of CoASH release. The PAT specific activity was determined from a standard curve of NADH production with different CoASH amounts. In these reactions, CoASH was added to the standard PAT reaction mixture (without Erf2/Erf4 complex or palmitoyl-CoA) and the reaction was allowed to proceed to equilibrium before fluorescence was measured.
# The identification of palmitoylation inhibitors has been hampered by the lack of assays amenable to high throughput screening applications. Previously, we validated an assay that monitors the rate of autopalmitoylation by measuring the production of CoASH generated from the […] of palmitoyl-CoA [13]. This assay has a Z′-value of 0.87 [13]. […] This assay can be used to monitor autopalmitoylation in real time or as an end point assay, thus providing flexibility when screening small molecule compounds. Compounds with internal fluorescence or that affect the assay components are easily identified and excluded, allowing for the rapid identification of the compounds that inhibit or activate PAT autopalmitoylation activity. […]
# [5] = tested on: S. cerevisiae RJY1942 (sensitized); experiment: Yeast cell spot assay, sensitized strain; format: cell-based; conditions: for inhibition at 5 µM: Saccharomyces cerevisiae
# Protocol: (§1) Following 24 hrs incubation with varying concentrations of the inhibitors in 1% DMF, S. cerevisiae strains RJY1941 and RJY1942 were then diluted 1/100, and spotted onto SC-Ura plates with 2% glucose. Cytotoxicity data was obtained by detecting the colony growth, following 48 hrs incubation at 30° C., with white light detection on the Bio-Rad Molecular Imager® ChemiDoc™ XRS+ (Hercules, Calif.) and performing densitometry with Bio-Rad ImageLab™ Software (Hercules, Calif.). Triplicate reactions were plated in triplicate. Values were normalized to vehicle control (1% DMF) for each plate, and then the averages of each reaction were compared for statistical analysis.
# (§2) We next compared the ability of either strain to grow following the 24 hrs incubation with Compounds 13, 14, or 25. Serial dilutions of RJY1941 and RJY1942 were spotted on agar plates following incubation for 24 hrs with varying inhibitor concentrations. […] Conversely, compound 13 inhibited (100%) the growth of RJY1942 (sensitized) at 5 μM.
# [6] = tested on: S. cerevisiae RJY1941 (control); experiment: Yeast cell spot assay, control strain; format: cell-based
# Protocol: as §1, §2
# [7] = 20 μM, spotted after 24 hrs incubation
# [8] = concentrations lower than 20 μM (2.5, 5, 10 μM)
# [9] = spotted after 24 hrs incubation, read-out: inhibition of growth of RJY1942 (sensitized)
# T1 sequence (Q06551 whole entry): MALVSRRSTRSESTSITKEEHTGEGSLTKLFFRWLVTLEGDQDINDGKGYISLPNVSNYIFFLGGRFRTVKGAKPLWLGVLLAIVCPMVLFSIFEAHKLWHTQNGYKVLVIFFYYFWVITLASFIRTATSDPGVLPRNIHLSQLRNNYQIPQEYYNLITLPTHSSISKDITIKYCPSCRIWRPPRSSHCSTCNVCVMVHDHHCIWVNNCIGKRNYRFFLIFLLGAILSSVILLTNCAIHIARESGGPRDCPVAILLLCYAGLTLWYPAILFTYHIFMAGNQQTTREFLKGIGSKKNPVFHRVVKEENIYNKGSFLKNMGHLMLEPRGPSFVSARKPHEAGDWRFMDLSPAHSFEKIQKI
Structure (SMILES),"EC50 ([1]; Saccharomyces cerevisiae, read-out: EC50 (50% reduction in growth))",selectivity: EC50 in the control strain RJY1941 as compared to the sensitive strain RJY1942 [1],"Ki (Erf2 [2]; dose response curves of steady-state autopalmitoylation, read-out: steady-state autopalmitoylation inhibition constant (Ki), gel-based assay)",mode of inhibition of Erf2 autopalmitoylation (Erf2 [3]),Ki (Erf2 [4]),VMAX for the Palmitoyl-CoA substrate (Erf2 [4]; inhibitor at 25 μM),VMAX for the Palmitoyl-CoA substrate (Erf2 [4]; inhibitor at 50 μM),VMAX for the Palmitoyl-CoA substrate (Erf2 [4]; inhibitor at 100 μM),"inhibition of yeast growth in spot assay ([5]; 2.5-20 μM on solid yeast medium, strain not specified)","inhibition of growth of RJY1941 (control) [6, 7]","inhibition of growth of RJY1941 (control) [6, 8]","mode of inhibition of steady-state Erf2 autopalmitoylation (Erf2 [2]; 25, 50, 100 μM compound at varying BODIPY-C12-CoA)",mode of inhibition of Erf2 autopalmitoylation (Erf2 [4]),"inhibition at 5 µM [5, 9]",inhibition of growth of RJY1942 (sensitized) ([5]; concentrations higher than 5 μM),"inhibition at 5 µM ([5]; read-out: inhibition of growth of RJY1942 (sensitized), relative to that observed for compound 13)"
"CCCCCCCCCCCCCCC(Br)C(=O)O (stereo not drawn) [Compound 2-BP, 2-bromopalmitic acid, reference compound]",12.5 µM,2 fold,79 µM,uncompetitive or mixed inhibitor,59 µM,160 ± 5 µM,126 ± 23 µM,51 ± 8 µM,did not inhibit,–,–,–,–,–,–,–
"CC(C)Cc1ccc(C(C)CN2CCNC[C@@H]2CCCCN2CCN(CC(C)c3ccc(CC(C)C)cc3)[C@@H](Cc3ccc(O)cc3)C2)cc1 (stereo partly drawn) [Compound 13, 4-(((2S)-1-(2-(4-isobutylphenyl)propyl)-4-(4-((2S)-1-(2-(4-isobutylphenyl)propyl)piperazin-2-yl)butyl)piperazin-2-yl)methyl)phenol]",–,2 fold,–,–,–,243 ± 20 µM,354 ± 26 µM,631 ± 94 µM,–,completely inhibited,no detectable effect,acting competitively,Competitively,100%,–,–
"CC(C)Cc1ccc(C(C)CN2CCNC[C@@H]2CCCCN2CCN(CCc3cc(C(F)(F)F)cc(C(F)(F)F)c3)[C@@H](Cc3ccc(O)cc3)C2)cc1 (stereo partly drawn) [Compound 14, 4-(((2S)-1-(3,5-bis(trifluoromethyl)phenethyl)-4-(4-((2S)-1-(2-(4-isobutylphenyl)propyl)piperazin-2-yl)butyl)piperazin-2-yl)methyl)phenol]",–,–,–,–,–,–,–,–,–,completely inhibited,no detectable effect,–,–,~10%,total inhibition,–
"CC(C)Cc1ccc(C(C)CN2CCN(CCCC[C@H]3CNCCN3CCc3cc(C(F)(F)F)cc(C(F)(F)F)c3)C[C@@H]2Cc2ccc(O)cc2)cc1 (stereo partly drawn) [Compound 25, 4-(((2S)-4-(4-((S)-1-(3,5-bis(trifluoromethyl)phenethyl)piperazin-2-yl)butyl)-1-(2-(4-isobutylphenyl)propyl)piperazin-2-yl)methyl)phenol]",–,2 fold,–,–,–,307 ± 30 µM,344 ± 34 µM,542 ± 60 µM,–,completely inhibited,no detectable effect,–,Competitively,–,–,~90%

# Source: patent US10085981B2, “Protein acyl transferase inhibitors and methods of treatment” (UNIVERSITY OF SOUTH FLORIDA, priority 2015, dated 2018)
